In US6426355B1, “Heterocyclic carboxamide-containing thiourea inhibitors of herpes viruses containing phenylenediamine group” (American Home Products, priority 1998, dated 2002):
In brackets after ≈: the same amount, converted by molar mass.

Columns and labels:
VZV strain Ellen = experiment: VZV Antiviral (ELISA) assay; format: cell-based; conditions: for IC50 (ug/ml) VZV / % inhibition 10 ug/ml VZV: VZV strain Ellen in HFF cells; for % inhibition 10 ug/ml VZV: at 10 ug/ml; for IC50: Human alphaherpesvirus 3, VZV strain Ellen in HFF cells, read-out: IC50 (ug/ml) VZV; for inhibition at 10 µg/mL: Human alphaherpesvirus 3, read-out: % inhibition 10 ug/ml VZV, at 10 ug/ml, VZV strain Ellen in HFF cells
How it was run: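 Antiviral IC50 is derived by comparing fluorescence with and without compound after a three-day culture of VZV-infected plus uninfected foreskin fibroblasts. Replication is quantified by ELISA against glycoprotein II, using a β-galactosidase secondary and methyl umbelliferyl-β-D-galactoside.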

[1] = system: HCMV recombinant mutant virus (RV145); experiment: HCMV microtiter plate assay (beta-glucuronidase reporter); format: cell-based, Human Cytomegalovirus; conditions: for IC50 (ug/ml) HCMV: HCMV in human foreskin fibroblasts; for IC50: Human betaherpesvirus 5, Fibroblast, read-out: IC50 (ug/ml) HCMV
How it was run: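 Human foreskin fibroblasts were infected with RV145 in the presence of inhibitor. β-glucuronidase under a viral promoter served as the replication marker. At 96 h post-infection, lysates in pH 7.0 phosphate with Triton X-100/sarkosyl were assayed colorimetrically or fluorometrically, and IC50 was estimated from varying inhibitor amounts.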

HSV-1 = experiment: HSV Antiviral (ELISA) assay; format: cell-based; conditions: for IC50 (ug/ml) HSV: HSV-1 in Vero cells; for IC50: Human alphaherpesvirus 1, HSV-1 in Vero cells, read-out: IC50 (ug/ml) HSV
How it was run: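 Vero cells in DMEM/2% FBS pretreated with compound 30 min before HSV-1 infection (MOI 0.006), then ~24 h at 37 °C. Viral gD detected by ELISA with β-galactosidase secondary and 4-methylumbelliferyl-galactoside (ex 365/em 450 nm); IC50 from fluorescence versus untreated infected cells.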

| SMILES | IC50 (ug/ml) VZV (VZV strain Ellen) [µg/mL] | % inhibition 10 ug/ml VZV (VZV strain Ellen) [%] | IC50 (ug/ml) HCMV [1] [µg/mL] | IC50 (ug/ml) HSV (HSV-1) [µg/mL] | IC50 (VZV strain Ellen) [µg/mL] | inhibition at 10 µg/mL (VZV strain Ellen) [%] | IC50 [1] [µg/mL] | IC50 (HSV-1) [µg/mL] |
| --- | --- | --- | --- | --- | --- | --- | --- | --- |
| COc1cc(OC)c(NC(=S)Nc2ccc(NC(=O)c3csnn3)cc2)cc1Cl [Example 173] | >10 | 31 | 0.08 (≈ 0.178 µM) | >10 | – | – | – | – |
| COc1cc(OC)c(NC(=S)Nc2ccc(NC(=O)c3ccncc3)cc2)cc1Cl [Example 155] | >10 | 22 | 5 (≈ 11.3 µM) | 5 (≈ 11.3 µM) | – | – | – | – |
| CN(c1ccc(NC(=S)Nc2ccc(NC(=O)c3ccco3)cc2)cc1Cl)C1CCCCC1 [Example 246] | 4 (≈ 8.28 µM) | 37 | 0.05 (≈ 0.104 µM) | >10 | – | – | – | – |
| COc1cc(OC)c(NC(=S)Nc2ccc(NC(=O)c3ccc(Br)o3)cc2)cc1Cl [Example 168] | >10 | – | 2.5 (≈ 4.89 µM) | 3 (≈ 5.87 µM) | – | – | – | – |
| CN(C)c1ccc(NC(=S)Nc2ccc(NC(=O)c3ccccn3)cc2)cc1Cl [Example 350] | >10 | 50 | 1 (≈ 2.35 µM) | >10 | – | – | – | – |
| O=C(Nc1ccc(NC(=O)c2csnn2)cc1)Nc1cc(Cl)cc(Cl)c1 [Example 86, [1,2,3]Thiadiazole-4-carboxylic acid {4-[3-(3,5-dichloro-phenyl)-ureido]-phenyl}-amide] | – | – | – | – | > 10 | 32 | 0.04 (≈ 0.098 µM) | > 10 |
| CCOC(=O)Nc1ccc(NC(=S)Nc2ccc(NC(=O)c3ccco3)cc2)cc1Cl [Example 398] | >10 | 5 | 0.13 (≈ 0.283 µM) | >10 | – | – | – | – |
| COc1cc(OC)c(NC(=S)Nc2ccc(NC(=O)c3cccc4cccnc34)cc2)cc1Cl [Example 146] | >10 | 14 | >10 | >10 | – | – | – | – |
| CN1CCC(N(C)c2ccc(NC(=S)Nc3ccc(NC(=O)c4ccco4)cc3)cc2Cl)CC1 [Example 344] | 7 (≈ 14.1 µM) | 72 | 0.25 (≈ 0.502 µM) | 4 (≈ 8.03 µM) | – | – | – | – |
| CN(C)CCSCC(=O)Nc1ccc(NC(=S)Nc2ccc(NC(=O)c3ccco3)cc2)cc1Cl [Example 396] | >10 | 26 | 0.7 (≈ 1.32 µM) | >10 | – | – | – | – |
| O=C(Nc1ccc(NC(=S)NCCOc2ccccc2)cc1)c1ccco1 [Example 626] | >10 | – | 0.07 (≈ 0.184 µM) | 10 (≈ 26.2 µM) | – | – | – | – |
| CN1CCC(N(C)c2ccc(NC(=S)Nc3ccc(NC(=O)c4csnn4)cc3)cc2Cl)CC1 [Example 904, [1,2,3]Thiadiazole-4-carboxylic acid [4-(3-{3-chloro-4-[methyl-(1-methyl-piperidin-4-yl)-amino]-phenyl}-thioureido)-phenyl]-amide] | – | – | – | – | > 10 | 58 | 0.4 (≈ 0.775 µM) | 12 (≈ 23.3 µM) |
| COc1cc(OC)c(NC(=S)Nc2ccc(NC(=O)c3occc3C)cc2)cc1Cl [Example 167] | 3.8 (≈ 8.52 µM) | 70 | 9 (≈ 20.2 µM) | 10 (≈ 22.4 µM) | – | – | – | – |
| O=C(Nc1ccc(NC(=S)Nc2cccc(O)c2)cc1)c1ccco1 [Example 474] | >10 | 22 | 1 (≈ 2.83 µM) | >10 | – | – | – | – |
| COC(=O)c1cc(NC(=S)Nc2ccc(NC(=O)c3csnn3)cc2)cc(C(=O)OC)c1 [Example 485] | >10 | 11 | 0.03 (≈ 0.0636 µM) | >10 | – | – | – | – |
| CC1CCCCN1CC(=O)Nc1ccc(NC(=S)Nc2ccc(NC(=O)c3ccco3)cc2)cc1Cl (stereo not drawn) [Example 424] | 0.7 (≈ 1.33 µM) | 103 | 0.09 (≈ 0.171 µM) | 3 (≈ 5.7 µM) | – | – | – | – |
| O=C(Nc1ccc(NC(=S)Nc2ccc(SC(F)(F)F)c(Cl)c2)cc1)c1ccco1 [Example 551] | >10 | – | 0.043 (≈ 0.0911 µM) | >10 | – | – | – | – |
| Cc1cccc(NC(=S)Nc2ccc(NC(=O)c3ccco3)cc2)c1 [Example 436] | >10 | – | 0.15 (≈ 0.427 µM) | 10 (≈ 28.5 µM) | – | – | – | – |

| SMILES | IC50 (ug/ml) VZV (VZV strain Ellen) [µg/mL] | % inhibition 10 ug/ml VZV (VZV strain Ellen) [%] | IC50 (ug/ml) HCMV [1] [µg/mL] | IC50 (ug/ml) HSV (HSV-1) [µg/mL] | IC50 (VZV strain Ellen) [µg/mL] | inhibition at 10 µg/mL (VZV strain Ellen) [%] | IC50 [1] [µg/mL] | IC50 (HSV-1) [µg/mL] |
| --- | --- | --- | --- | --- | --- | --- | --- | --- |
| O=C(Nc1ccc(NC(=O)c2ccco2)cc1)Nc1cc(C(F)(F)F)cc(C(F)(F)F)c1 [Example 88, Furan-2-carboxylic acid {4-[3-(3,5-bis-trifluoromethyl-phenyl)-ureido]-phenyl}-amide] | – | – | – | – | 0.03 (≈ 0.0656 µM) | – | 0.013 (≈ 0.0284 µM) | > 10 |
| Cc1nc(C(=O)Nc2ccc(NC(=S)Nc3ccc(Cl)c(Cl)c3)cc2)cs1 [Example 1139, 2-Methyl-thiazole-4-carboxylic acid {4-[3-(3,4-dichloro-phenyl)-thioureido]-phenyl}-amide] | – | – | – | – | 6 (≈ 13.7 µM) | – | 1.2 (≈ 2.74 µM) | 3.7 (≈ 8.46 µM) |
| Nc1c(Br)cc(NC(=S)Nc2ccc(NC(=O)c3csnn3)cc2)cc1Br [Example 521] | 3 (≈ 5.68 µM) | 97 | 0.04 (≈ 0.0757 µM) | 10 (≈ 18.9 µM) | – | – | – | – |
| COc1cc(OC)c(NC(=S)Nc2ccc(NC(=O)c3cnns3)cc2)cc1Cl [Example 323] | >10 | 45 | 0.03 (≈ 0.0667 µM) | 3 (≈ 6.67 µM) | – | – | – | – |
| O=C(Nc1ccc(NC(=S)Nc2ccc(Cl)c(C(F)(F)F)c2)cc1)c1ccccn1 [Example 379] | >10 | 27 | >10 | >10 | – | – | – | – |
| O=C(CN1CCCCC1)Nc1ccc(NC(=S)Nc2ccc(NC(=O)c3ccco3)cc2)cc1Cl [Example 365] | 5 (≈ 9.76 µM) | 75 | 0.035 (≈ 0.0684 µM) | 10 (≈ 19.5 µM) | – | – | – | – |
| CN(C)c1c(Cl)cccc1NC(=S)Nc1ccc(NC(=O)c2ccco2)cc1 [Example 505] | 8 (≈ 19.3 µM) | 79 | 0.2 (≈ 0.482 µM) | 10 (≈ 24.1 µM) | – | – | – | – |
| CC(C)c1cccc(NC(=S)Nc2ccc(NC(=O)c3csnn3)cc2)c1 [Example 450] | >10 | – | 0.05 (≈ 0.126 µM) | >10 | – | – | – | – |
| O=C(Nc1ccc(NC(=S)NCCc2cc(C(F)(F)F)ccc2F)cc1)c1csnn1 [Example 767] | 1 (≈ 2.13 µM) | – | 0.006 (≈ 0.0128 µM) | >10 | – | – | – | – |
| O=C(CN1CCCCCC1)Nc1ccc(NC(=S)Nc2ccc(NC(=O)c3ccco3)cc2)cc1Cl [Example 422] | >10 | 69 | 0.058 (≈ 0.11 µM) | 5 (≈ 9.5 µM) | – | – | – | – |
| NC(=O)c1cccc(NC(=S)Nc2ccc(NC(=O)c3ccco3)cc2)c1 [Example 1004, Furan-2-carboxylic acid {4-[3-(3-carbamoyl-phenyl)-thioureido]-phenyl} -amide] | – | – | – | – | > 10 | 36 | 0.5 (≈ 1.31 µM) | > 10 |
| CN(c1ccc(NC(=S)Nc2ccc(NC(=O)c3ccccn3)cc2)cc1Cl)C1CCCCC1 [Example 249] | >10 | 59 | 0.4 (≈ 0.81 µM) | >10 | – | – | – | – |
| COc1cc(OC)c(NC(=S)Nc2ccc(NC(=O)c3ccco3)cc2)cc1Cl [Example 170] | >10 | 32 | 0.2 (≈ 0.463 µM) | >10 | – | – | – | – |
| CC(C)c1nc(C(=O)Nc2ccc(NC(=S)Nc3ccc(Cl)c(C(F)(F)F)c3)cc2)cs1 [Example 1130, 2-Isopropyl-thiazole-4-carboxylic acid {4-[3-(4-chloro-3-trifluoromethyl-phenyl)-thioureido]-phenyl}-amide] | – | – | – | – | 5.5 (≈ 11 µM) | – | 2 (≈ 4.01 µM) | 2 (≈ 4.01 µM) |
| O=C(Nc1ccc(NC(=S)Nc2ccc(Br)c(Cl)c2)cc1)c1csnn1 [Example 970, [1,2,3]Thiadiazole-4-carboxylic acid {4-[3-(4-bromo-3-chloro-phenyl)-thioureido]-phenyl}-amide] | – | – | – | – | > 10 | 16 | 0.06 (≈ 0.128 µM) | > 10 |
| CCCCc1nc(C(=O)Nc2ccc(NC(=S)Nc3cc(C(F)(F)F)cc(C(F)(F)F)c3)cc2)cs1 [Example 1137, 2-Butyl-thiazole-4-carboxylic acid {4-[3-(3,5-bis-trifluoromethyl-phenyl)-thioureido]-phenyl}-amide] | – | – | – | – | 3.5 (≈ 6.4 µM) | – | 0.6 (≈ 1.1 µM) | > 10 |
| O=C(Nc1ccc(NC(=S)Nc2cccc([N+](=O)[O-])c2)cc1)c1ccccc1F [Example 1009, 2-Fluoro-N-{4-[3-(3-nitro-phenyl)-thioureido]-phenyl} -benzamide] | – | – | – | – | – | 22 | 0.2 (≈ 0.487 µM) | 10 (≈ 24.4 µM) |
